Experiments:
Assay type in all cases: binding
[1] = biological target: T1, human TREM2 (hTREM2) (Homo sapiens, UniProt Q9NZC2); test: microscale thermophoresis
T1 sequence (Q9NZC2 19-230): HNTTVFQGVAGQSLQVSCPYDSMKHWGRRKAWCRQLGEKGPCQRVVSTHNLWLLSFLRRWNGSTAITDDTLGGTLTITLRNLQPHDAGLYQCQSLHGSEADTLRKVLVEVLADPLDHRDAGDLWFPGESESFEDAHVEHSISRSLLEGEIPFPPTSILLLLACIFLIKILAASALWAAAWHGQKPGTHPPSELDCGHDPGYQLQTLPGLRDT

[2] = biological target: T2, mouse TREM2 (mTREM2) (Mus musculus, UniProt Q99NH8); test: microscale thermophoresis
T2 sequence (Q99NH8 19-227): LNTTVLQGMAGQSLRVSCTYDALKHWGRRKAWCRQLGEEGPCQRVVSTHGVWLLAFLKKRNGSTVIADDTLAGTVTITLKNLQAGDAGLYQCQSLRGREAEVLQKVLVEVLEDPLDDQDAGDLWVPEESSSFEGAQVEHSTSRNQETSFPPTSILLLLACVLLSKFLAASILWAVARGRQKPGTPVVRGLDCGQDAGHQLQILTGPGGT

[3] = biological target: APOE (apolipoprotein E) (Homo sapiens, UniProt P02649); test: microscale thermophoresis with labelled recombinant APOE
APOE (apolipoprotein E), sequence (P02649 19-317): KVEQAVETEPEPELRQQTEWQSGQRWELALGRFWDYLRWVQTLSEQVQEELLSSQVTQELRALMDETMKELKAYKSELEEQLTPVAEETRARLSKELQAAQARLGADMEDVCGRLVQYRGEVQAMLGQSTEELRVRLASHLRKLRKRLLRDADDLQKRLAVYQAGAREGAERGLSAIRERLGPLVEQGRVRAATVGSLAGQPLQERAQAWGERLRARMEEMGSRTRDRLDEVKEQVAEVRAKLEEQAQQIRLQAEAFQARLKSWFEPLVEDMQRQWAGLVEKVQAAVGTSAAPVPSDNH

[4] = biological target: T3, rat TREM2 (rTREM2) (Rattus norvegicus, UniProt A0A6G8MV71); test: microscale thermophoresis with labelled recombinant TREM2
T3 sequence (A0A6G8MV71 19-229): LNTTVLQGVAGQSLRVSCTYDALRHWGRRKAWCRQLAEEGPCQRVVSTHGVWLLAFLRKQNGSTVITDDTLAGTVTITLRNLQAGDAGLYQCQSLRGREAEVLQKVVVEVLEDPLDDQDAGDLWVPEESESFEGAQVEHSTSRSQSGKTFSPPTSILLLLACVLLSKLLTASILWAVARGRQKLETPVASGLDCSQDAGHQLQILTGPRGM

[5] = biological target: T4, TREM2 D104A (hTREM2) (Homo sapiens, UniProt Q9NZC2, D104A); test: microscale thermophoresis with labelled TREM2 D104A
T4 sequence (Q9NZC2 19-174 D104A limits assumed): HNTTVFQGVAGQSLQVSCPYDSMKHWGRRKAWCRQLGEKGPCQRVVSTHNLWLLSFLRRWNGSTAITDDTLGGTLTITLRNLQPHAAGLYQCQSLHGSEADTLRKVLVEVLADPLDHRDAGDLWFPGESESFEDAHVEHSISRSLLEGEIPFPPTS

[6] = biological target: T2, mouse TREM2 (mTREM2); test: microscale thermophoresis with labelled recombinant TREM2
[7] = biological target: T1, human TREM2 (hTREM2); test: as above

Kd [1] [µM] | Kd [2] [µM] | Kd [3] [µM] | Kd [4] [µM] | Kd [5] [µM] | Kd [6] [µM] | Kd [7] [µM] | Structure (SMILES)
62.6 ± 11.9 | 64.6 ± 16.6 | 6.64 ± 1.68 | 56.8 ± 14 | 593 ± 97.6 | – | – | CCCCCCCCCCCCC/C=C/[C@@H](O)[C@@H](N)COP(=O)(O)O [S1P]
– | – | 15.9 ± 7.41 | 7.17 ± 2.21 | – | 72.6 ± 21 | 6.75 ± 1.8 | CCCCCCCCc1ccc(CC[C@](N)(CO)COP(=O)(O)O)cc1 [FTY720P]

From article PMC9279640 (Acta Pharmaceutica Sinica. B, 2021)
